This is an account of results in patent US8106218B2, “Pharmaceutical compounds” (Neuroscienze Pharmaness S.C. A R.L., priority 2004, dated 2012).

Entries after “also recorded” stand apart in the source; their conditions may differ. Like-named read-outs stand apart in the source and are kept apart here.

For series [1], the system named is rat intestinal motility. Kind of series: Intestinal motility, Upper Gut Transit Test, compound alone. The format is in vivo. The conditions noted are these: control 50%. As for the experimental part: (§1) To evaluate the activity in vivo of the compounds (I) object of the present invention, functional tests were carried out directed to the evaluation of the effect of said compounds on the rat intestinal motility. It was indeed shown the involvement of the cannabinoidergic CB1 receptors in the intestinal motility regulation in rat (R. G. Pertwee et al; Br. J. Pharmacol.; 1996, 118, 2199-2205). In particular, the CB1 receptor agonists slacken the gastrointestinal motility; antagonist compounds of the same receptors have instead a prokinetic effect on the gastrointestinal transit (G. Colombo et al.; Eur. J. Pharmacol.; 1998, 344, 67-69; M. A. Casu et al.; Eur. J. Pharmacol.; 2003, 459, 97-105).
(§2) The evaluation of the constipating or prokinetic effect of the compounds was carried out by the Upper Gut Transit Test method on the basis of the procedure defined and ratified by Y. Nagakura et al.; Eur. J. Pharmacol.; 1996, 311, 67-72. The method, which allows to measure the motility of the stomach and of the first intestine tract (small or little intestine), requires: • the administration of the compound to be tested by i.p. route; • the administration of carmine red (marker not directly absorbable from the stomach) by intragastric route through a metal probe, after 20 minutes from the administration of the compound to be tested; • the rat sacrifice by cervical dislocation after a pre-fixed time (30 minutes) starting from the administration time; • the intestine explant from pylorus to the ileo-cecal valve; • the determination of the intestinal part crossed by the marker; • the data processing to determine the percentage of crossed part with respect to the total length of the small intestine.
With respect to the control (physiological solution or carrier wherein the compounds to be tested were solubilized or dispersed), the administration of CB1 agonist compounds implies an intestinal transit percentage reduction; an opposite effect is noticed in case of antagonist compounds. The latter are therefore capable to cancel the constipating effect of CB1 agonist compounds.
Each test was repeated on ten animals; the results reported in the Examples are the average of the results obtained with ten animals.

In series [2] the test system is rat. Kind of series: Hypothermia test in vivo, antagonism of the hypothermia induced by WIN 55,212-2.
Experimental: The rectal temperature in the rat was determined by an electronic thermometer inserted at a 2 mm depth. The measurements were carried out on rats acclimated for one hour. The rectal temperature was determined before and after (from 30 to 120 minutes) the i.p. administration of the compound to be tested.
In series [3] the test system is rat. The note with it: for passage of the hemato-encephalic barrier: concluded from the hypothermia tests. As for the experimental part:
The rectal temperature in the rat was determined by an electronic thermometer inserted at a 2 mm depth. The measurements were carried out on rats acclimated for one hour. […]
Each test was repeated on ten animals; the reported results are the average of the results obtained with the ten animals.

Series [4] deals with rat intestinal motility. As to the kind of experiment: Intestinal motility, Upper Gut Transit Test, antagonism of the constipating action of WIN 55,212-2. The format is in vivo. The conditions noted are these: WIN alone 25%. The method, then:
as §1, §2
With respect to the control (physiological solution or carrier wherein the compounds to be tested were solubilized or dispersed), the administration of CB1 agonist compounds implies an intestinal transit percentage reduction; an opposite effect is noticed in case of antagonist compounds. The latter are therefore capable to cancel the constipating effect of CB1 agonist compounds. […]

Series [5] addresses T1, cannabinoidergic CB1 receptors (Rattus norvegicus, UniProt P20272).
T1 construct: the brain in toto (cerebellum excluded) and the spleen were rapidly dissected and maintained in ice; from tissue; host or cells: rat brain (cerebellum excluded), membrane preparation
As to the kind of experiment: Radioreceptorial binding, [3H]-CP-55,940 competition, rat brain membranes. The method, then:
(§3) The affinity of the synthesized compounds towards the cannabinoidergic CB1 and CB2 receptors was evaluated in vitro through radioreceptorial binding studies by utilizing the following method.
(§4) The receptorial binding technique allows indeed to establish if and with what affinity and specificity a determined compound binds itself to a particular receptor. To evaluate the possible affinity of a determined compound towards a particular receptor it is necessary to make to compete (in a particular preparation of the tissue in which those determined receptors are present) the compound to be tested with another compound whose affinity is known and whose molecule was rendered radioactive. […] The reading of the radioactivity present in the receptor-compound complex allows furthermore to calculate with extreme precision the amount of compound bound to the receptor. […] By repeating the same experimental scheme it is possible to evaluate the affinity of the compound towards other kinds of receptors and establish then the specificity degree.
(§5) Food and water were available ad libitum.
(§6) The animals were sacrificed by cervical dislocation, the brain in toto (cerebellum excluded) and the spleen were rapidly dissected and maintained in ice.
(§7) The tissue was homogenized in 15 volumes (weight/volume) of TME buffer (50 mM Tris, 1 mM EDTA e 3 mM MgCl2, pH 7.4) by an Ultra-Turrax and centrifuged for 10 minutes at 1086×g in a centrifuge cooled at 4° C. The resulting supernatant was centrifuged at 45,000×g for 30 min at 4° C. by using a Beckman SW41 rotor and the final pellet was resuspended in 50 volumes of TME.
(§8) The obtained membranes (50-80 μg of proteins) were incubated in the presence of 1 nM di[^3H]-CP55,940 for 1 h at 30° C. in a final volume of 0.5 ml of TME buffer containing 5 mg/ml of bovine serum albumin (BSA). The non specific binding was measured in the presence of CP55,940 at the 1 μM concentration.
(§9) All the experiments were carried out in polypropylene test tubes pretreated with Sigma-Cote (Sigma Chemical Co. Ltd., Poole, UK) to reduce the non specific binding.
(§10) For the building of the competitive inhibition binding curves eight different concentrations of each compound were used.
(§11) Incubation was interrupted by addition of TME buffer (at 4° C.) containing 5 mg/ml of BSA and filtration under vacuum through Whatman GFC filters pretreated with 0.5% of polyethylamine (PEI) and by using a filtering apparatus (Brandell, Gaithersburg, Md., USA). Filters were washed 3 times with 5 ml of Tris HCl buffer (pH 7.4, 4° C.) containing 1 mg/ml of BSA and singly placed in plastic vials containing 4 ml of scintillating liquid (Ultima Gold MV, Packard).
(§12) The radioactivity present in the filters was measured by a scintillator spectrophotometer (Tricarb 2100, Packard, Meridien, USA).
(§13) The protein determination was carried out by the Bradford method by using the protocol and the reactants supplied by Bio-Rad (Milano, Italia).
(§14) The affinity of the compounds towards the CB1 and CB2 receptors was expressed in Ki terms.

In series [6] the target is T2, cannabinoidergic CB2 receptors (Rattus norvegicus, UniProt Q9QZN9).
T2 construct: the brain in toto (cerebellum excluded) and the spleen were rapidly dissected and maintained in ice; from tissue; host or cells: rat spleen, membrane preparation
T2 sequence (Q9QZN9 1-360): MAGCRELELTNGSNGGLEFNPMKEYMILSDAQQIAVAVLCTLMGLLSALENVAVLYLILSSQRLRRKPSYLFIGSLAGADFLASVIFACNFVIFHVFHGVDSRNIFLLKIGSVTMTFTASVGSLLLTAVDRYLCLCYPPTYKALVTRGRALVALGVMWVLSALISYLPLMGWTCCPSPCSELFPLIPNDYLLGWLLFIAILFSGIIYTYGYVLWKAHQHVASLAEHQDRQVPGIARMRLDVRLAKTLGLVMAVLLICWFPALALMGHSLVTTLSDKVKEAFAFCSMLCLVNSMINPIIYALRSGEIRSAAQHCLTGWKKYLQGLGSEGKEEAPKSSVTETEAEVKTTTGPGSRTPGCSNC
As to the kind of experiment: Radioreceptorial binding, [3H]-CP-55,940 competition, rat spleen membranes. The method, then:
as §3, §4, §5, §6, §7, §8, §9, §10, §11, §12, §13, §14

T1 sequence (P20272 whole entry): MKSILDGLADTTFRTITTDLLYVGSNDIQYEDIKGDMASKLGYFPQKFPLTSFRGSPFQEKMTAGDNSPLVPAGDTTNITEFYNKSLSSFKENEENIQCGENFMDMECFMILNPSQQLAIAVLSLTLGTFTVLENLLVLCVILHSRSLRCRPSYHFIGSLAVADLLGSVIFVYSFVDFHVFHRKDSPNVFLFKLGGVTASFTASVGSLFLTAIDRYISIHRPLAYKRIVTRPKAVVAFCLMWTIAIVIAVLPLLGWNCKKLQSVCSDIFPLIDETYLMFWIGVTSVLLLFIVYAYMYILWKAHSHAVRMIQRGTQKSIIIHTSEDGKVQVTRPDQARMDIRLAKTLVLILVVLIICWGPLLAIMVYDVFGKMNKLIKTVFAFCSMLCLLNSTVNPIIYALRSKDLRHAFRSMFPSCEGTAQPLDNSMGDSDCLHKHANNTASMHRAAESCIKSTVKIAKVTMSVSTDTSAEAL

Take “N-piperidino-5-(4-chlorophenyl)-1-(2,4-dichlorophenyl)-4-methylpyrazol-3-carboxyamide [SR141716A, reference compound]”: the “intestinal portion run by the marker with respect to the total intestine length” value (shortened to “intestinal portion run by the marker”) in the series on rat intestinal motility [1] (compound 2.5 mg/kg i.p.) worked out at 75%; with rat intestinal motility [4] (compound 0.1 mg/kg before WIN 55,212-2 0.5 mg/kg), 50%. Moreover, the Body temperature worked out at 35.3 °C in the series with rat [2] (WIN 55,212-2 (3 mg/kg) + compound (0.1 mg/kg), 30 min); 36.9 °C in the series with rat [2] (WIN 55,212-2 (3 mg/kg) + compound (0.1 mg/kg), 60 min); 37.5 °C in the series with rat [2] (WIN 55,212-2 (3 mg/kg) + compound (0.1 mg/kg), 90 min); 37.0 °C in the series on rat [2] (WIN 55,212-2 (3 mg/kg) + compound (0.5 mg/kg), 30 min); 37.8 °C with rat [2] (WIN 55,212-2 (3 mg/kg) + compound (0.5 mg/kg), 60 min); 37.9 °C in the series on rat [2] (WIN 55,212-2 (3 mg/kg) + compound (0.5 mg/kg), 90 min). The “antagonist activity towards the hypothermia induced by WIN 55,212-2, in words” value with rat [2] (compound i.p. 30 min before WIN 55,212-2 (3 mg/kg)) is given as “able to antagonize the effect of WIN 55,212-2”. For the same compound, the “passage of the hemato-encephalic barrier” value in the series with rat [3] is “capable to pass the hemato-encephalic barrier”. Also, the “effect on body temperature (hypothermia) of the compound alone, in words” value with rat [3] (i.p., compound alone, up to 120 min) is on record as “has not implied any variation of the body temperature”.
Regarding `O=C(NN1CCCCCC1)c1nn(-c2ccc(Cl)cc2Cl)c2c1CCc1sc(Cl)cc1-2` [Example 3.6, N-homopiperidinyl-7-chloro-1-(2′,4′-dichlorophenyl)-4,5-dihydro-1H-thieno[2,3-g]indazol-3-carboxamide], the melting point is 181 to 182 °C. In addition, the Ki in series [5] came to 9.83 ± 0.72 nM. In addition, in the series on rat intestinal motility [1] (compound 1 mg/kg i.p.), the “intestinal portion run by the marker” value is recorded as 65%. The “intestinal portion run by the marker” value in the series with rat intestinal motility [1] (compound 5 mg/kg i.p.) is listed as 75%. Also, affinity in series [6] was put at a Ki of 20.8 ± 1.4 nM. The “passage of the hemato-encephalic barrier” value with rat [3] is given as “unable to pass the hemato-encephalic barrier; also recorded: not capable to pass the hemato-encephalic barrier”. Besides, the “intestinal portion run by the marker” value with rat intestinal motility [4] (compound 0.3 mg/kg before WIN 55,212-2 0.5 mg/kg) turned out to be 50%.
`O=C(NN1CCCC1)c1nn(-c2ccc(Cl)cc2Cl)c2c1CCc1sc(Cl)cc1-2` [Example 3.5, N-pyrrolidinyl-7-chloro-1-(2′,4′-dichlorophenyl)-4,5-dihydro-1H-thieno[2,3-g]indazol-3-carboxamide] registered a melting point of 228 °C. The Ki in series [5] (rat brain membranes, 1 nM [3H]-CP55,940, read-out: CB1 (brain) Ki) is 137 ± 12 nM. In addition, the “intestinal portion run by the marker” value in the series with rat intestinal motility [1] (compound 5 mg/kg i.p.) came to 67%. Further, the Ki in series [6] (rat spleen membranes, 1 nM [3H]-CP55,940, read-out: CB2 (spleen) Ki) is 243 ± 14 nM. Also, the “passage of the hemato-encephalic barrier” value in the series with rat [3] was “not able to pass the hemato-encephalic barrier”. Moreover, the “intestinal portion run by the marker” value in the series on rat intestinal motility [4] (compound 1.5 mg/kg before WIN 55,212-2 0.5 mg/kg) is recorded as 50%.
